This is an account of results in patent US6942870B2, “Compositions and methods using direct MMP inhibitors for inhibiting photoaging of skin” (The Regents of the University of Michigan, priority 1997, dated 2005).

One series deals with human skin. The series can be described thus: UV-induced erythema (skin reddening) of human skin after topical pretreatment, chromameter. It is filed as in vivo. Conditions: for protection against UV-induced erythema / reduction in erythema: 5% ASA or 3.5% vit. C applied 16 hours prior to exposure; for reduction in erythema: vs untreated (vehicle-only) skin; for prevention of UV-induced erythema: 5% topical, applied about seven hours prior to UV exposure, vs vehicle-treated skin; for inhibition of UV-induced erythema: 2 MED, 20% NAC or 5% FDO pretreatment. As for the experimental part:
(§1) In the following examples, four F36T12 ERE-VHO UV bulbs were used to irradiate human skin. At all times, a Kodocel TA401/407 filter was mounted 4 cm in front of the bulbs to remove UVC radiation (<290 nm). Radiation intensity was monitored using an IL443 phototherapy radiometer and an SED240/UVB/W photodetector (International Light, Newbury, Mass.). Spectroradiometry was performed using an Optronic Labroatories OL 754 system. Total irradiance (290-800 nm) at about 43 cm (17 in.) from the source of four bulbs was about 1.5 mJ/cm^2·s (1.49×10^−3 W/cm^2). The radiation output from this bulb was determined by spectroradiometry to provide about 47% UVB and about 27% UVA (composed of about 9% UVA1 (340-400 nm) and about 18% UVA2 (320-340 nm)), the remainder being visible and IR radiation. An exposure of about 160 seconds under this set of four bulbs is equivalent to an exposure of one MED. Accordingly, when compared with natural sunlight which has 0.5% UVB and 6.5% UVA, it can be seen that the set of four bulbs used in these experiments provides far less UVA radiation than would exposure to the sun of an equivalent amount of UVB.
(§2) In the following examples, a “standard vechicle” of 30% PEG (polyethylene glycol) in 70% ethanol (with 0.05% BHT as preservative) was used. […] MMP activities were measured by zymography.
Chromameter: erythema (skin reddening) was determined 24 h post-exposure using a commercially available Minolta chromameter (chromameter CR200, model 94401085).

A further series concerns type I collagenase. The series can be described thus: Type I collagenase activity/level in biopsies of UV-exposed human skin. It is filed as in vivo. The note with it: for collagenase activity after UV exposure: 5% ASA applied 16 hours prior to exposure; for inhibition of UV-induced collagenase activity: about 2 MED, 5% topical, about seven hours prior to exposure; for inhibition of UV-induced increase in collagenase activity: 20% NAC; for protection against UV-induced type I collagenase activity: 2 MED, 20% NAC or 5% FDO pretreatment. As for the experimental part:
as §1, §2
Matrix metalloproteinase assays. Tissue pieces were frozen in liquid nitrogen immediately after biopsy, homogenized in 20 mM Tris HCl (pH 7.6) plus 5 mM CaCl2, and centrifuged at 3000×g for 10 minutes to remove particulates. Ability to release soluble radioactive fragments from 3H-labeled fibrillar Type I collagen (described by Fisher, G. J., et al., Nature, 379, 335-339 (1996) and Hu, C-L, et al., Analytic. Biochem, 88, 638-643 (1978)) was used as a measure of collagenolytic activity. […] Subsequently, 0.2 μCi of collagen substrate (NEN-DuPont, Boston, Mass.) was incubated for 24 hours with 50 μl of tissue extract. At the end of the 24-hour incubation period, the samples were centrifuged at 12,000×g for 10 minutes to pellet the intact protein. Radioactivity remaining in the supernatant fluid was then measured and from this, the percentage of substrate hydrolzyed was determined.

The test system of a further series is 92 KDa gelatinase. Kind of series: 92 kDa gelatinase activity/level in biopsies of UV-exposed human skin (gelatin zymography). It counts as in vivo. Conditions: for inhibition of UV-induced 92 KDa gelatinase activity: 5% topical, about seven hours prior to exposure; for inhibition of UV-induced increase in 92 KDa gelatinase activity: 1 MED, 20% NAC. As to the method: as §1, §2
Gelatin zymography (Varani et al., op. cit.) was used to assess MMP-2 (72-kD gelatinase; gelatinase A) and MMP9 (92-kD gelatinase; gelatinase B) activity. Tissue extracts were electrophoresed in an 8.5% SDS-polyacrylamide gel containing 1 mg/ml of gelatin. After electrophoresis, the SDS was removed by three sequential washes in 1% Triton X-100. The first two washes were for 20 minutes each and the last was overnight. Quantitation of hydrolysis zone width was done by laser densitometry.

Series [1] is described as follows: UV absorbance characteristics of UVA blocker over UVA1, UVA2 and UVB wavelengths. It is filed as physicochemical. An excerpt: We investigated the effect of pretreatment of skin with a known UVA blocker on both erythema and MMP activity after exposure to 2 MEDs of UV radiation. In particular, we used PARSOL® 1789 (also known as PARSOL A) brand of 4-t-butyl-4′-methoxydibenzoylmethane, which is described in U.S. Pat. No. 4,387,089 (the disclosure of which is incorporated herein by reference). (PARSOL MCX and PARSOL MOX are trademarks for 2-ethylhexyl p-methoxycinnamate, a UVB blocker commonly used in commercial sunscreen, and disclosed in U.S. Pat. No. 4,713,473, the disclosure of which is incorporated herein by reference). The absorbance characteristics of PARSOL® 1789 over the UVA1, UVA2, and UVB wavelengths is shown as the dotted line in FIG. 8A.

The mark [2] stands for this setting: about 2 MED, 5% PARSOL 1789 pretreatment.

“Also recorded” adds a separate entry of the source.

Turning to `CC(=O)Oc1ccccc1C(=O)O` [ASA, acetyl salicylic acid], the “protection against UV-induced erythema” value with human skin (1 MED) is recorded as “provided protection against erythema”; with human skin (1 MED, listed as aspirin), “reduced the UV-induced erythema”. For the same compound, in the series with human skin (1 MED), the reduction in erythema result is “about 30%”. The “collagenase activity after UV exposure” value with type I collagenase (1 MED, vs untreated skin) is given as “not effective at preventing elevated collagenase activity”; with type I collagenase (1 MED, vs untreated skin, listed as aspirin), “greater collagenase activity than untreated skin”.
In the case of `O=C1O[C@H]([C@@H](O)CO)C(O)=C1O` [vitamin C, ascorbic acid], in the series with human skin (1 MED), the “protection against UV-induced erythema” value was “provided protection against erythema; also recorded: reduced the UV-induced erythema” and the reduction in erythema result was “about 30%”. Further, the “reduction in collagenase activity” value in the series on type I collagenase (1 MED, 3.5% vit. C applied 16 hours prior to exposure, vs untreated skin) is listed as around 25%.
As to `COc1ccc(C(=O)CC(=O)c2ccc(C(C)(C)C)cc2)cc1` [PARSOL® 1789, 4-t-butyl-4′-methoxydibenzoylmethane], the “protection from UV-induced erythema (sunburn)” value with human skin (setting [2]) is listed as “does provide some protection”. In the series with 92 KDa gelatinase (setting [2]), the “gelatinase activity vs UV-exposed vehicle-treated skin” value is recorded as “significantly reduced” and the “gelatinase activity vs vehicle-treated unexposed skin” value is on record as “not significantly different from vehicle-treated unexposed skin”. The “blocking of UVA1 radiation (absorbance)” value in series [1] (UVA1 wavelengths) is given as “somewhat effective at blocking UVA1 radiation”. For the same compound, in series [1] (UVA2 wavelengths), the “blocking of UVA2 radiation (absorbance)” value is reported as “especially useful at blocking UVA2 radiation”.
With `COc1ccc2[nH]cc(CCNC(C)=O)c2c1` [melatonin], the “prevention of UV-induced erythema” value is “significantly reduced the erythema” in the series on human skin (about 2 MED) and “does appear to prevent erythema” in the series with human skin (about 2 MED, listed as Melatonin). The “inhibition of UV-induced 92 KDa gelatinase activity” value with 92 KDa gelatinase (about 2 MED) was “neither melatonin nor vitamin E (both with pretreatment) prevented induction of MMPs; also recorded: did not function to inhibit the increased MMP activity”. Further, in the series with type I collagenase, the “inhibition of UV-induced collagenase activity” value is reported as “neither melatonin nor vitamin E (both with pretreatment) prevented induction of MMPs; also recorded: did not function to inhibit the increased MMP activity”.
Take vitamin E: the “prevention of UV-induced erythema” value with human skin (about 2 MED) was “significantly reduced the erythema”; in the series on human skin (about 2 MED, listed as Vitamin E), “slightly worse but still very effective at preventing erythema”. In addition, the “inhibition of UV-induced 92 KDa gelatinase activity” value in the series on 92 KDa gelatinase (about 2 MED) is given as “neither melatonin nor vitamin E (both with pretreatment) prevented induction of MMPs; also recorded: did not function to inhibit the increased MMP activity”. The “inhibition of UV-induced collagenase activity” value with type I collagenase is listed as “neither melatonin nor vitamin E (both with pretreatment) prevented induction of MMPs; also recorded: did not function to inhibit the increased MMP activity”.
As for `CC(=O)N[C@@H](CS)C(=O)O` [NAC, N-acetyl cysteine], the “anti-redness effect on UV-exposed skin” value with human skin (1 MED, 20% NAC, four or seven hours prior to exposure) is “no anti-redness effect”. Moreover, the “inhibition of UV-induced erythema” value with human skin was “no effect against erythema”. Further, the “inhibition of UV-induced increase in 92 KDa gelatinase activity” value in the series with 92 KDa gelatinase (four hour pretreatment) is “ineffective”; with 92 KDa gelatinase (seven hour pretreatment) it was “provided an inhibitory effect”. The “inhibition of UV-induced increase in collagenase activity” value in the series on type I collagenase (1 MED, four hour pretreatment) is recorded as “ineffective”; in the series with type I collagenase (1 MED, seven hour pretreatment), “provided an inhibitory effect”. Also, in the series on type I collagenase, the “protection against UV-induced type I collagenase activity” value is “effective at preventing increased MMP activity; also recorded: significant protection against collagenase activity”.
As to `O/N=C(/C(=N/O)c1ccco1)c1ccco1` [FDO, 2-furildioxime], in the series with human skin, the “inhibition of UV-induced erythema” value is “effective at preventing erythema; also recorded: completely inhibited erythema”. In addition, the “protection against UV-induced type I collagenase activity” value with type I collagenase is listed as “some protection against MMP induction”.
Take `CC1=C(/C=C/C(C)=C/C=C/C(C)=C/CO)C(C)(C)CCC1` [retinol]: the “prevention of UV-induced elevation in type I collagenase activity” value in the series on type I collagenase (suberythemal 0.5 MED, 0.1% retinoic acid or 1% retinol pretreatment) is given as “about as effective as retinoic acid”.
